Results taken from PubChem BioAssay (NCI).
Several values for one entry are separate records, joined by “and”; a condition that tells them apart may be missing. Equal entries are not always repeated.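 These data come from cells grown in 96-well plates and exposed to compound for 48 hours at five concentrations. GI50 = concentration required for 50% inhibition of growth. TGI denotes the concentration required for complete inhibition of growth.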

Key:
Assay in all cases: NCI anticancer screen, dose series, 48 h
[1] = tested on: T-47D breast
[2] = tested on: KM20L2 colon
[3] = tested on: DLD-1 colon
[4] = tested on: M19-MEL melanoma
[5] = tested on: LXFL 529 NSCLC
[6] = tested on: HOP-18 NSCLC
[7] = tested on: XF 498 CNS
[8] = tested on: RXF-631 renal
[9] = tested on: MDA-N

Row | SMILES | GI50 [1] | TGI [1] | TGI [2] [µM] | TGI [3] [µM] | TGI [4] [µM] | TGI [5] [µM] | TGI [6] [µM] | TGI [7] [µM] | other results
1 | COC(=O)c1cnc(=O)n(C2CC(O)C(CO)O2)c1 (stereo not drawn) | > 100 µM | > 100 µM |  |  |  |  |  |  | 
2 | CCOP(=O)(OCC)C1C(=O)O[C@H]2CCCC[C@@H]12 (stereo partly drawn) |  |  | > 100 | > 100 | > 100 | > 100 | > 100 | > 100 | 
3 | NNC(=O)/C(=C/c1cccc([N+](=O)[O-])c1)NC(=O)c1ccccc1 |  |  |  | > 100 | > 100 | > 100 | > 100 | > 100 | TGI [8]: > 100 µM
4 | NC(N)=NS(=O)(=O)c1ccc(NC(=O)c2cccc3c(Nc4ccc(S(=O)(=O)N=C(N)N)cc4)c4ccc(Cl)cc4nc23)cc1 |  |  | > 100 | > 100 |  | > 100 | > 100 | > 100 | 
5 | C/C(=N\N(C)C)c1sc(-n2nc(-c3ccccc3)cc2-c2ccccc2)nc1C |  |  | > 100 | > 100 | > 100 | > 100 | > 100 | > 100 | TGI [8]: > 100 µM
6 | CCCCN(CCCC)C(=O)C(=O)CC(=O)c1ccc(Br)cc1 |  |  | > 100 | > 100 | > 100 | > 100 | > 100 | > 100 | 
7 | COc1c(OC(C)=O)ccc(/C=C2\N=C(C)OC2=O)c1[N+](=O)[O-] |  |  | > 100 | > 100 | > 100 | > 100 | > 100 |  | TGI [8]: > 100 µM
8 | Cc1ccc2c(c1)NC(c1ccc(C(=O)O)cc1)c1cccn1-2 (stereo not drawn) |  | 49.2 µM |  |  |  |  |  |  | TGI [9]: > 100 µM
9 | O=C1/C(=C\c2ccc(Cl)cc2)CN(C(=S)Nc2ccccc2)C/C1=C\c1ccc(Cl)cc1 | 1.1 µM | 3.61 µM |  |  |  |  |  |  | 
10 | CCOC(=O)c1cnc(SCc2ccc(Cl)c(Cl)c2)nc1N1CC1 | 3.15 µM | 19.5 µM |  |  |  |  |  |  | 
11 | O=C(Nc1n[nH]c2nc(-c3ccco3)c(Br)cc12)C1CC1 | > 25 µM | > 25 µM |  |  |  |  |  |  | 
12 | Cn1nc(-c2ccccc2NC(=O)C(F)(F)F)c(=O)n(C)c1=S |  |  |  | > 100 | 48.7 | > 100 |  | 36.9 | 
13 | Cc1cc(Br)cc(C)c1NC(=O)C(=O)CC(=O)c1sc(-n2nc(-c3ccccc3)cc2-c2ccccc2)nc1C |  |  | > 100 | > 100 | > 100 | > 100 | > 100 |  | TGI [8]: > 100 µM
14 | O=C1C2=C(c3ccccc31)C(c1cccc(Cl)c1)NC(=S)N2 (stereo not drawn) |  |  | > 100 | > 100 | > 100 | > 100 |  | > 100 | 
15 | COc1ccc(N(C)c2nc(C)nc3ccccc23)cc1 | 14.2 µM | > 100 µM |  |  |  |  |  |  | 
16 | COc1ccc(-c2oc3cc(O)c(OC)c(O)c3c(=O)c2OC2OC(CO)C(O)C(O)C2O)cc1 (stereo not drawn) |  |  | > 100 | > 100 | > 100 | > 100 | > 100 |  | 
17 | Cc1ccc(S(=O)(=O)N/N=C/C(Br)=C(/Br)C(=O)O)cc1 |  | 23.3 µM |  |  |  |  |  |  | TGI [9]: 18.8 µM
18 | N#C/C(=C\c1c(-c2ccccc2)[nH]c2ccccc12)C(=O)c1ccc(Cl)cc1 | 2.89 µM | 18.4 µM |  |  |  |  |  |  | 

Row | SMILES | GI50 [1] | TGI [1] | TGI [2] [µM] | TGI [3] [µM] | TGI [4] [µM] | TGI [5] [µM] | TGI [6] [µM] | TGI [7] [µM] | other results
19 | COC(=O)Nc1nc2ccc(C(=O)c3ccc[nH]3)cc2[nH]1 |  | > 100 µM |  |  |  |  |  |  | TGI [9]: 0.419 µM
20 | COC1C=C(Nc2cccc(Cl)c2)C(=O)C1 (stereo not drawn) |  |  | > 100 | > 100 | > 100 | > 100 | 76.2 | 77 | 
21 | CC(Cc1ccc(Cl)cc1Cl)NO (stereo not drawn) |  | > 100 µM |  |  |  |  |  |  | TGI [9]: > 100 µM
22 | C1=CN2C[n+]3cccc(OCc4ccccc4)c3N=C2C(OCc2ccccc2)=C1 |  | > 100 µM |  |  |  |  |  |  | 
23 | C=C(c1ccccc1N)[C@@]1(O)C[C@H](/C(=C\C)CO)C[C@@H]1NCc1ccccc1 |  |  | 42.6 |  | 62.1 |  | 52.4 |  | 
24 | O=C(CCCc1c[nH]c2ccccc12)NC1CC(=O)c2c(Br)sc(Br)c21 (stereo not drawn) | 26.5 µM | > 100 µM |  |  |  |  |  |  | 
25 | C[C@@H](c1ccc2nccn2c1)n1nnc2ncc(-c3cnn(C)c3)nc21 | 53 µM | > 100 µM |  |  |  |  |  |  | 
26 | CCOC(=O)C1C=C2O[C@@H]3OC4(CCCCC4)O[C@@H]3C2[C@H]2C(=O)C=CC(=O)[C@@]12C(=O)OC (stereo partly drawn) |  |  | 30.6 | 35.1 | 31.4 | 22.9 | 32.4 | 12.8 | TGI [8]: 51.8 µM
27 | COc1cc(CCc2cc(NC(=O)c3ccc(N4C[C@@H](C)N[C@@H](C)C4)cc3)n[nH]2)cc(OC)c1 | > 10 µM and 15.3 µM | > 10 µM and 31.6 µM |  |  |  |  |  |  | 
28 | O=C1c2cc3c(cc2-c2c1c1cc(Cl)c(Cl)cc1c(=O)n2CCCn1ccnc1)OCO3 | < 0.01 µM | 0.0636 µM |  |  |  |  |  |  | 
29 | CCOC(=O)/N=c1\ss/c(=N\C(=S)N(C)C)n1-c1ccccc1 |  |  | > 100 | > 100 |  | > 100 |  | > 100 | GI50 [2]: > 100 µM; GI50 [3]: > 100 µM; GI50 [4]: > 100 µM
30 | CCCCCCCCCCCCCCCCCCNC(=O)[C@H]1CSC(c2ccc(OC)c(F)c2)N1 (stereo partly drawn) | 2.21 µM | 6.57 µM |  |  |  |  |  |  | 
31 | COc1cc(C(=O)O)c([N+](=O)[O-])c(OC)c1OC |  | > 100 µM |  |  |  |  |  |  | TGI [9]: > 100 µM
32 | Cc1cc2c(C)c3cc(C)c(N)cc3nc2cc1N | 0.754 µM | 5.28 µM |  |  |  |  |  |  | 
33 | S=c1[nH]nc(COc2ccc(Cl)cc2)o1 |  |  | > 100 | > 100 | > 100 | > 100 | > 100 |  | TGI [8]: > 100 µM
34 | Cc1cc(NC(=O)C2c3ccccc3C(=O)N(CC(C)C)C2c2cccs2)no1 (stereo not drawn) | > 100 µM | > 100 µM |  |  |  |  |  |  | 
35 | CC(C)=CC(=O)CC(=O)C(=O)Nc1ccc(C)c(C)c1 |  |  | > 100 | > 100 | > 100 | > 100 |  | > 100 | TGI [8]: > 100 µM
